± gives the expanded uncertainty stated by the source.
Experiment: cn = amount concentration of the nth substance listed, in mol/dm3
Settings: 101 kPa, Liquid; for speed of sound: Sing-around technique in a fixed-path interferometer; for mass density: Vibrating tube method

Cl [hydrogen chloride] + O
Settings | mass density, c1 = 0.001 [kg/m3] | mass density, c1 = 0.01 [kg/m3] | speed of sound, c1 = 0.001 [m/s] | speed of sound, c1 = 0.01 [m/s]
283.15 K | 999.726 ± 0.047 | 999.891 ± 0.047 | 1447.9 ± 0.99 | 1448.2 ± 0.99
293.15 K | 998.23 ± 0.058 | 998.393 ± 0.044 | 1482.6 ± 1 | 1482.7 ± 1
298.15 K | 997.067 ± 0.053 | 997.231 ± 0.046 | 1496.8 ± 0.99 | 1496.9 ± 0.99
303.15 K | 995.67 ± 0.054 | 995.834 ± 0.049 | 1509.3 ± 0.99 | 1509.3 ± 0.99
308.15 K | 994.057 ± 0.06 | 994.318 ± 0.05 | 1520 ± 0.99 | 1520 ± 0.99
313.15 K | 992.244 ± 0.052 | 992.405 ± 0.053 | 1529.1 ± 0.99 | 1529.1 ± 0.99

Source: the NIST ThermoML archive (doi:10.1016/j.jct.2007.04.009)
